# US11053204B2, “Pyrimidinyloxy benzene derivatives as herbicides” (FMC Corporation, priority 2015, dated 2021)
# Experiments:
# Type in all cases: in vivo
# [1] = test system: Italian ryegrass (Lolium multiflorum); assay: Test A postemergence, visual injury rating; details: 0 is no effect, 100 is complete control
# Summary of the method: (§1)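 Injury scores run from 0, no effect, to 100, complete control, judged by eye against untreated plants roughly 10 days after treatment. Chemicals carried a surfactant in a non-phytotoxic solvent and went onto loam–sand soil preemergence or onto one- to two-leaf seedlings postemergence.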
# [2] = test system: barnyardgrass (Echinochloa crus-galli); assay: Test A postemergence, visual injury rating; details: Echinochloa crus-galli, post-emergence, 240 h, 0 is no effect, 100 is complete control, read-out: Barnyardgrass plant response rating (0 to 100 scale)
# Summary of the method: as §1
# [3] = test system: blackgrass (Alopecurus myosuroides); assay: Test A postemergence, visual injury rating; details: Alopecurus myosuroides, post-emergence, 240 h, 0 is no effect, 100 is complete control, read-out: Blackgrass plant response rating (0 to 100 scale)
# Summary of the method: as §1
# corn (Zea mays) = assay: Test A postemergence, visual injury rating; details: Zea mays, post-emergence, 240 h, 0 is no effect, 100 is complete control, read-out: Corn plant response rating (0 to 100 scale)
# Summary of the method: as §1
# [4] = test system: galium (catchweed bedstraw, Galium aparine); assay: Test A postemergence, visual injury rating; details: Galium, post-emergence, 240 h, 0 is no effect, 100 is complete control, read-out: Galium plant response rating (0 to 100 scale)
# Summary of the method: as §1
# [5] = test system: giant foxtail (Setaria faberii); assay: Test A postemergence, visual injury rating; details: Setaria faberi, post-emergence, 240 h, 0 is no effect, 100 is complete control, read-out: Foxtail, Giant plant response rating (0 to 100 scale)
# Summary of the method: as §1
# kochia (Kochia scoparia) = assay: Test A postemergence, visual injury rating; details: 0 is no effect, 100 is complete control
# Summary of the method: as §1
# [6] = test system: pigweed (Amaranthus retroflexus); assay: Test A postemergence, visual injury rating; details: 0 is no effect, 100 is complete control
# Summary of the method: as §1
# [7] = test system: ragweed (common ragweed, Ambrosia elatior); assay: Test A postemergence, visual injury rating; details: 0 is no effect, 100 is complete control
# Summary of the method: as §1
# [8] = test system: wheat (Triticum aestivum); assay: Test A postemergence, visual injury rating; details: 0 is no effect, 100 is complete control
# Summary of the method: as §1
# [9] = test system: lambsquarters (Chenopodium album); assay: Test C preemergence, plant response rating; details: Chenopodium album, pre-emergence, Preemergence
# Summary of the method: (§2)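 Greenhouse plants rated visually against untreated controls 13–15 d after treatment, scale 0 = no effect to 100 = complete control. Postemergence sprays went onto potted plants 2–18 cm tall (1–4 leaves); preemergence sprays onto soil freshly sown in loam–sand or silt loam, chemicals formulated in non-phytotoxic solvent with surfactant.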
# [10] = test system: morningglory (Ipomoea coccinea); assay: Test C preemergence, plant response rating; details: Ipomoea, pre-emergence, Preemergence
# Summary of the method: as §2
# [11] = test system: nutsedge, yellow (yellow nutsedge, Cyperus esculentus); assay: Test C preemergence, plant response rating; details: Cyperus, pre-emergence, Preemergence
# Summary of the method: as §2
# [12] = test system: velvetleaf (Abutilon theophrasti); assay: Test C preemergence, plant response rating; details: Abutilon theophrasti, pre-emergence, Preemergence
# Summary of the method: as §2
# [13] = test system: waterhemp (common waterhemp, Amaranthus rudis); assay: Test C preemergence, plant response rating; details: Amaranthus tuberculatus, pre-emergence, Preemergence
# Summary of the method: as §2
# [14] = test system: wheat (winter wheat, Triticum aestivum); assay: Test C preemergence, plant response rating; details: Triticum aestivum, pre-emergence, Preemergence
# Summary of the method: as §2
# [15] = test system: barnyardgrass (Echinochloa crus-galli); assay: Test C postemergence, plant response rating; details: Echinochloa crus-galli, post-emergence
# Summary of the method: as §2
# [16] = test system: crabgrass, large (large crabgrass, Digitaria sanguinalis); assay: Test C postemergence, plant response rating; details: Digitaria sanguinalis, post-emergence
# Summary of the method: as §2
# [17] = test system: ryegrass, Italian (Italian ryegrass, Lolium multiflorum); assay: Test C postemergence, plant response rating; details: Lolium multiflorum, post-emergence
# Summary of the method: as §2
# [18] = 125 g ai/ha, 0 to 100 scale, approximately 10 days
# [19] = 62 g ai/ha, scale 0 to 100 (0 no effect, 100 complete control)
# [20] = 125 g ai/ha, scale 0 to 100 (0 no effect, 100 complete control)
structure (smiles),measurement,setting,value
"N#Cc1cccc(Oc2ncc(Cl)cn2)c1CCCCC(F)(F)F [Compound 73, 3-[(5-chloro-2-pyrimidinyl)oxy]-2-(5,5,5-trifluoropentyl)benzonitrile]","Ryegrass, Italian plant response rating",[1]; [18],80
same,pest or weed control at 500 g/ha,"[1]; Lolium multiflorum, post-emergence, 240 h, 500 g ai/ha, read-out: Ryegrass, Italian plant response rating (0 to 100 scale)",100%
same,pest or weed control at 125 g/ha,[2]; 125 g ai/ha,90%
same,pest or weed control at 500 g/ha,[2]; 500 g ai/ha,100%
same,pest or weed control at 125 g/ha,[3]; 125 g ai/ha,50%
same,pest or weed control at 500 g/ha,[3]; 500 g ai/ha,100%
same,plant injury at 125 g/ha,corn (Zea mays); 125 g ai/ha,30%
same,plant injury at 500 g/ha,corn (Zea mays); 500 g ai/ha,60%
same,pest or weed control at 125 g/ha,[4]; 125 g ai/ha,100%
same,pest or weed control at 500 g/ha,[4]; 500 g ai/ha,100%
same,pest or weed control at 125 g/ha,[5]; 125 g ai/ha,100%
same,pest or weed control at 500 g/ha,[5]; 500 g ai/ha,100%
same,Kochia plant response rating,kochia (Kochia scoparia); [18],100
same,pest or weed control at 500 g/ha,"kochia (Kochia scoparia); Bassia scoparia, post-emergence, 240 h, 500 g ai/ha, read-out: Kochia plant response rating (0 to 100 scale)",100%
same,Pigweed plant response rating,[6]; [18],100
same,pest or weed control at 500 g/ha,"[6]; Amaranthus retroflexus, post-emergence, 240 h, 500 g ai/ha, read-out: Pigweed plant response rating (0 to 100 scale)",100%
same,Ragweed plant response rating,[7]; [18],20
same,pest or weed control at 500 g/ha,"[7]; Ambrosia artemisiifolia, post-emergence, 240 h, 500 g ai/ha, read-out: Ragweed plant response rating (0 to 100 scale)",30%
same,Wheat plant response rating,[8]; [18],20
same,plant injury at 500 g/ha,"[8]; Triticum aestivum, post-emergence, 240 h, 500 g ai/ha, read-out: Wheat plant response rating (0 to 100 scale)",90%
same,pest or weed control at 125 g/ha,"[9]; 125 g ai/ha, scale of 0 to 100",100%
same,pest or weed control at 16 g/ha,"[9]; 16 g ai/ha, scale 0 to 100",85%
same,pest or weed control at 31 g/ha,"[9]; 31 g ai/ha, scale 0 to 100",90%
same,pest or weed control at 62 g/ha,"[9]; 62 g ai/ha, scale 0 to 100",90%
same,pest or weed control at 125 g/ha,"[10]; 125 g ai/ha, scale of 0 to 100",75%
same,pest or weed control at 16 g/ha,"[10]; 16 g ai/ha, scale 0 to 100",0%
same,pest or weed control at 31 g/ha,"[10]; 31 g ai/ha, scale 0 to 100",10%
same,pest or weed control at 62 g/ha,"[10]; 62 g ai/ha, scale 0 to 100",60%
same,pest or weed control at 125 g/ha,"[11]; 125 g ai/ha, scale of 0 to 100",10%
same,pest or weed control at 16 g/ha,"[11]; 16 g ai/ha, scale 0 to 100",0%
same,pest or weed control at 31 g/ha,"[11]; 31 g ai/ha, scale 0 to 100",0%
same,pest or weed control at 62 g/ha,"[11]; 62 g ai/ha, scale 0 to 100",0%
same,pest or weed control at 125 g/ha,"[12]; 125 g ai/ha, scale of 0 to 100",95%
same,pest or weed control at 16 g/ha,"[12]; 16 g ai/ha, scale 0 to 100",0%
same,pest or weed control at 31 g/ha,"[12]; 31 g ai/ha, scale 0 to 100",30%
same,pest or weed control at 62 g/ha,"[12]; 62 g ai/ha, scale 0 to 100",75%
same,pest or weed control at 125 g/ha,"[13]; 125 g ai/ha, scale of 0 to 100",100%
same,pest or weed control at 16 g/ha,"[13]; 16 g ai/ha, scale 0 to 100",65%
same,pest or weed control at 31 g/ha,"[13]; 31 g ai/ha, scale 0 to 100",100%
same,pest or weed control at 62 g/ha,"[13]; 62 g ai/ha, scale 0 to 100",100%
same,plant injury at 125 g/ha,"[14]; 125 g ai/ha, scale of 0 to 100",70%
same,plant injury at 16 g/ha,"[14]; 16 g ai/ha, scale 0 to 100",0%
same,plant injury at 31 g/ha,"[14]; 31 g ai/ha, scale 0 to 100",0%
same,plant injury at 62 g/ha,"[14]; 62 g ai/ha, scale 0 to 100",30%
same,pest or weed control at 16 g/ha,"[15]; 16 g ai/ha, scale 0 to 100",10%
same,pest or weed control at 31 g/ha,"[15]; 31 g ai/ha, scale 0 to 100",15%
same,pest or weed control at 62 g/ha,[15]; [19],20%
same,pest or weed control at 125 g/ha,[15]; [20],30%
same,pest or weed control at 16 g/ha,"[16]; 16 g ai/ha, scale 0 to 100",15%
same,pest or weed control at 31 g/ha,"[16]; 31 g ai/ha, scale 0 to 100",10%
same,pest or weed control at 62 g/ha,[16]; [19],25%
same,pest or weed control at 125 g/ha,[16]; [20],60%
same,pest or weed control at 16 g/ha,"[17]; 16 g ai/ha, scale 0 to 100",5%
same,pest or weed control at 31 g/ha,"[17]; 31 g ai/ha, scale 0 to 100",5%
same,pest or weed control at 62 g/ha,[17]; [19],10%
same,pest or weed control at 125 g/ha,[17]; [20],20%
